Assay results: ChEMBL document CHEMBL4304804, “Synthesis and biological evaluation of calycanthaceous alkaloid analogs” (Bioorg Med Chem, 2019)
pIC50: −log10 of the molar value. Converted amounts (≈) assume the structure as drawn. The source made the active and inactive calls. No cut-off for these calls is given here.

Legend:
Escherichia coli = test: Antibacterial activity against Escherichia coli assessed as reduction in bacterial cell growth incubated for 24 hrs by filter paper assay; assay type: functional
Pseudomonas aeruginosa = test: Antibacterial activity against Pseudomonas aeruginosa assessed as reduction in bacterial cell growth incubated for 24 hrs by filter paper assay; assay type: functional
Ralstonia solanacearum = test: Antibacterial activity against Ralstonia solanacearum assessed as reduction in bacterial cell growth incubated for 24 hrs by filter paper assay; assay type: functional
Verticillium dahliae = test: Antifungal activity against Verticillium dahliae assessed as reduction in fungal cell growth incubated for 48 hrs by serial dilution method; assay type: functional
[1] = test system: Fusarium oxysporum f. sp. vasinfectum; test: Antifungal activity against Fusarium oxysporum sp. vasinfectum assessed as reduction in fungal cell growth incubated for 48 hrs by serial dilution method; assay type: functional
Cytospora = test: Antifungal activity against Cytospora juglandis assessed as reduction in fungal cell growth incubated for 48 hrs by serial dilution method; assay type: functional
Aspergillus flavus = test: Antifungal activity against Aspergillus flavus assessed as reduction in fungal cell growth incubated for 48 hrs by serial dilution method; assay type: functional
Penicillium citrinum = test: Antifungal activity against Penicillium citrinum assessed as reduction in fungal cell growth incubated for 48 hrs by serial dilution method; assay type: functional
Fusarium oxysporum = test: Antifungal activity against Fusarium oxysporum assessed as reduction in fungal cell growth incubated for 48 hrs by serial dilution method; assay type: functional
[2] = test system: Colletotrichum orbiculare; test: Antifungal activity against Colletotrichum orbiculare assessed as reduction in fungal cell growth incubated for 48 hrs by serial dilution method; assay type: functional
Aspergillus niger = test: Antifungal activity against Aspergillus niger assessed as reduction in fungal cell growth incubated for 48 hrs by serial dilution method; assay type: functional
Curvularia lunata = test: Antifungal activity against Curvularia lunata assessed as reduction in fungal cell growth incubated for 48 hrs by serial dilution method; assay type: functional
Bacillus cereus = test: Antibacterial activity against Bacillus cereus assessed as reduction in bacterial cell growth incubated for 24 hrs by filter paper assay; assay type: functional
Staphylococcus aureus = test: Antibacterial activity against Staphylococcus aureus assessed as reduction in bacterial cell growth incubated for 24 hrs by filter paper assay; assay type: functional
Candida = test: Antifungal activity against […] assessed as reduction in fungal cell growth incubated for 48 hrs by serial dilution method; assay type: functional
Cryptococcus neoformans = test: Antifungal activity against Cryptococcus neoformans assessed as reduction in fungal cell growth incubated for 48 hrs by serial dilution method; assay type: functional
Candida tropicalis = test: Antifungal activity against Candida tropicalis assessed as reduction in fungal cell growth incubated for 48 hrs by serial dilution method; assay type: functional
Acetylcholinesterase = Acetylcholinesterase (Electrophorus electricus, UniProt O42275); test: Inhibition of electric eel AChE by Ellman's colorimetry
Acetylcholinesterase, sequence (O42275 whole entry): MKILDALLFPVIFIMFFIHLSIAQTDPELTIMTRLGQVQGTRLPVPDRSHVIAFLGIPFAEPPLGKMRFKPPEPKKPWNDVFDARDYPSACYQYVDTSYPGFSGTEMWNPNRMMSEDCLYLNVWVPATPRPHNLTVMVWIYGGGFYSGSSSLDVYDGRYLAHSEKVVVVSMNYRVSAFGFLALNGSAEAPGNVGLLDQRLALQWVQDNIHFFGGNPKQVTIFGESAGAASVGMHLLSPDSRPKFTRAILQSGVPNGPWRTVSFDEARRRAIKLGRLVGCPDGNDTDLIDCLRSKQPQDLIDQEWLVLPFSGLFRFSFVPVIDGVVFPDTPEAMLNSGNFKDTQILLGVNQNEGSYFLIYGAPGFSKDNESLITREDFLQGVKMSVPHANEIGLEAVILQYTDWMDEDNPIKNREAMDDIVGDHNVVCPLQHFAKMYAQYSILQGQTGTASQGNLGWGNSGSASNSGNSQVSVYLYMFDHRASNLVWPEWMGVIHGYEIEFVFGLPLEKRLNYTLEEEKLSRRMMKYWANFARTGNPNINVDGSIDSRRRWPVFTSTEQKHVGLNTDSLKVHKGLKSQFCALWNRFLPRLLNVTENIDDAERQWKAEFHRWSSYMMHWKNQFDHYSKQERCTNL

| Compound | MIC (Escherichia coli) | MIC (Pseudomonas aeruginosa) | MIC (Ralstonia solanacearum) | MIC (Verticillium dahliae) | MIC [1] | MIC (Cytospora) | MIC (Aspergillus flavus) | MIC (Penicillium citrinum) | MIC (Fusarium oxysporum) | MIC [2] | MIC (Aspergillus niger) | MIC (Curvularia lunata) | MIC (Bacillus cereus) | MIC (Staphylococcus aureus) | MIC (Candida) | MIC (Cryptococcus neoformans) | MIC (Candida tropicalis) | pIC50 (Acetylcholinesterase) |
| --- | --- | --- | --- | --- | --- | --- | --- | --- | --- | --- | --- | --- | --- | --- | --- | --- | --- | --- |
| CN[C@@H]1[C@H](O[C@H]2[C@H](O[C@H]3[C@H](O)[C@@H](O)[C@H](N=C(N)N)[C@@H](O)[C@@H]3N=C(N)N)O[C@@H](C)[C@]2(O)C=O)O[C@@H](CO)[C@H](O)[C@H]1O [STREPTOMYCIN] | 31.2 µg/mL (≈ 53.7 µM) | inactive | 250 µg/mL (≈ 430 µM) |  |  |  |  |  |  |  |  |  |  |  |  |  |  |  |
| Cc1ccccc1CN1c2ccccc2C2(Cc3ccccc3C)CCN(C(=O)C(F)(F)F)C12 (centres undefined) | inactive | inactive | inactive | 125 µg/mL (≈ 269 µM) | inactive | 250 µg/mL (≈ 538 µM) | 250 µg/mL (≈ 538 µM) | inactive | 250 µg/mL (≈ 538 µM) | 250 µg/mL (≈ 538 µM) | 250 µg/mL (≈ 538 µM) | 250 µg/mL (≈ 538 µM) | inactive | inactive | 250 µg/mL (≈ 538 µM) | inactive | 125 µg/mL (≈ 269 µM) | 5.15 |
| COc1ccc(C(=O)N2CCC3(Cc4cccc(C)c4)c4ccccc4N(Cc4cccc(C)c4)C23)cc1 (centres undefined) | inactive | inactive | inactive | 125 µg/mL (≈ 249 µM) | inactive | 250 µg/mL (≈ 497 µM) | 250 µg/mL (≈ 497 µM) | 250 µg/mL (≈ 497 µM) | 250 µg/mL (≈ 497 µM) | inactive | 250 µg/mL (≈ 497 µM) | inactive | inactive | inactive | inactive | inactive | inactive | 5.55 |
| C[C@@H]1[C@H](O)[C@@H](C)/C=C/C=C/C=C/C=C/C=C/C=C/C=C/[C@H](O[C@@H]2O[C@H](C)[C@@H](O)[C@H](N)[C@@H]2O)C[C@@H]2O[C@](O)(C[C@@H](O)C[C@@H](O)[C@H](O)CC[C@@H](O)C[C@@H](O)CC(=O)O[C@H]1C)C[C@H](O)[C@H]2C(=O)O [AMPHOTERICIN B] |  |  |  |  |  |  |  |  |  |  |  |  |  |  | 250 µg/mL (≈ 271 µM) | 1.96 µg/mL (≈ 2.12 µM) |  |  |
| CCCCC(=O)N1CCC2(Cc3ccccc3C)c3ccccc3N(Cc3ccccc3C)C12 (centres undefined) | 250 µg/mL (≈ 552 µM) | 250 µg/mL (≈ 552 µM) | 250 µg/mL (≈ 552 µM) | 31.2 µg/mL (≈ 69 µM) | inactive | 250 µg/mL (≈ 552 µM) | 250 µg/mL (≈ 552 µM) | 250 µg/mL (≈ 552 µM) | 125 µg/mL (≈ 276 µM) | inactive | 250 µg/mL (≈ 552 µM) | inactive | 250 µg/mL (≈ 552 µM) | 250 µg/mL (≈ 552 µM) | 250 µg/mL (≈ 552 µM) | inactive | 125 µg/mL (≈ 276 µM) | 3.48 |
| CC(=O)N1CCCC2(O)c3ccccc3N(C)C12 (centres undefined) | inactive | 250 µg/mL (≈ 1010 µM) | 250 µg/mL (≈ 1010 µM) | inactive | inactive | inactive | inactive | inactive | inactive | inactive | inactive | inactive | inactive | 250 µg/mL (≈ 1010 µM) | inactive | inactive | inactive | 5.91 |
| Cc1cccc(C(=O)N2CCCC3(O)c4ccccc4N(C)C23)c1 (centres undefined) | inactive | 250 µg/mL (≈ 775 µM) | 62.5 µg/mL (≈ 194 µM) | 250 µg/mL (≈ 775 µM) | inactive | inactive | inactive | inactive | inactive | inactive | inactive | inactive | inactive | 250 µg/mL (≈ 775 µM) | inactive | inactive | 250 µg/mL (≈ 775 µM) | 5.26 |
| CCC(=O)N1CCC2(Cc3cccc(C)c3)c3ccccc3N(Cc3cccc(C)c3)C12 (centres undefined) | 250 µg/mL (≈ 589 µM) | inactive | inactive | 250 µg/mL (≈ 589 µM) | inactive | 62.5 µg/mL (≈ 147 µM) | 250 µg/mL (≈ 589 µM) | inactive | 125 µg/mL (≈ 294 µM) | 250 µg/mL (≈ 589 µM) | 125 µg/mL (≈ 294 µM) | 250 µg/mL (≈ 589 µM) | 31.2 µg/mL (≈ 73.6 µM) | 62.5 µg/mL (≈ 147 µM) | 250 µg/mL (≈ 589 µM) | inactive | 250 µg/mL (≈ 589 µM) | 6.04 |
| Cc1cccc(CN2c3ccccc3C3(Cc4cccc(C)c4)CCN(C(=O)Cc4ccccc4)C23)c1 (centres undefined) | inactive | inactive | inactive | 250 µg/mL (≈ 514 µM) | 125 µg/mL (≈ 257 µM) | 250 µg/mL (≈ 514 µM) | 250 µg/mL (≈ 514 µM) | 250 µg/mL (≈ 514 µM) | 250 µg/mL (≈ 514 µM) | inactive | 250 µg/mL (≈ 514 µM) | inactive | inactive | inactive | inactive | inactive | inactive | 3.34 |
| Cc1cccc(CN2c3ccccc3C3(Cc4cccc(C)c4)CCN(C(=O)COc4ccccc4)C23)c1 (centres undefined) | inactive | inactive | inactive | 250 µg/mL (≈ 497 µM) | 250 µg/mL (≈ 497 µM) | 125 µg/mL (≈ 249 µM) | 250 µg/mL (≈ 497 µM) | 250 µg/mL (≈ 497 µM) | 250 µg/mL (≈ 497 µM) | 250 µg/mL (≈ 497 µM) | 250 µg/mL (≈ 497 µM) | inactive | 250 µg/mL (≈ 497 µM) | inactive | 250 µg/mL (≈ 497 µM) | inactive | 125 µg/mL (≈ 249 µM) | 5.20 |
| GENTAMICIN | 1.96 µg/mL | 1.96 µg/mL | 62.5 µg/mL |  |  |  |  |  |  |  |  |  |  |  |  |  |  |  |
| COC(=O)Nc1nc2ccccc2[nH]1 [CARBENDAZIM] |  |  |  | 7.81 µg/mL (≈ 40.8 µM) | 62.5 µg/mL (≈ 327 µM) | 31.2 µg/mL (≈ 163 µM) | 7.81 µg/mL (≈ 40.8 µM) | 1.96 µg/mL (≈ 10.3 µM) | 125 µg/mL (≈ 654 µM) | 125 µg/mL (≈ 654 µM) | inactive | 250 µg/mL (≈ 1310 µM) |  |  |  |  |  |  |
| N#Cc1c(Cl)c(Cl)c(Cl)c(C#N)c1Cl [CHLOROTHALONIL] |  |  |  | 31.2 µg/mL (≈ 118 µM) | 250 µg/mL (≈ 940 µM) | 62.5 µg/mL (≈ 235 µM) | 7.81 µg/mL (≈ 29.4 µM) | 15.6 µg/mL (≈ 58.8 µM) | 62.5 µg/mL (≈ 235 µM) | 250 µg/mL (≈ 940 µM) | 15.6 µg/mL (≈ 58.8 µM) | 125 µg/mL (≈ 470 µM) |  |  |  |  |  |  |
| OC(Cn1cncn1)(Cn1cncn1)c1ccc(F)cc1F [FLUCONAZOLE] |  |  |  |  |  |  |  |  |  |  |  |  |  |  | 62.5 µg/mL (≈ 204 µM) |  | 250 µg/mL (≈ 816 µM) |  |
| CC1(C)S[C@@H]2[C@H](NC(=O)Cc3ccccc3)C(=O)N2[C@H]1C(=O)O [PENICILLIN G] |  |  |  |  |  |  |  |  |  |  |  |  | 7.81 µg/mL (≈ 23.4 µM) | 15.6 µg/mL (≈ 46.7 µM) |  |  |  |  |
